The text below walks through data of US9615577B2, “Herbicidally active cyclic dione compounds, or derivatives therefor, substituted by a phenyl which has an alkynyl-containing substituent” (Syngenta Limited, priority 2012, dated 2017).

The structures appear in SMILES notation.

Common to all, as to format: in vivo
Assay [1] concerns Alopecurus myosuroides (ALOMY). Nature of the assay: Test 1A glasshouse assay for herbicidal activity, pre-emergence. As to conditions: 312 h, evaluated after 13 days, read-out: percentage phytotoxicity ALOMY. In short, it runs like this:
(§1)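 Pre-em: spray 1 d after sowing; post-em: spray after 8 d cultivation. Formulation in acetone/water (50:50), 0.5% Tween 20. Glasshouse 24/16 °C d/n, 14 h light, 65% humidity. Readout: visual % damage at 13 d.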

Assay [2] concerns Amaranthus retroflexus (AMARE). The description is as above. As to conditions: 312 h, evaluated after 13 days, read-out: percentage phytotoxicity AMARE. In outline:
as §1

Assay [3] has as its system Echinochloa crus-galli (ECHCG). Described as above. As to conditions: 312 h, evaluated after 13 days, read-out: percentage phytotoxicity ECHCG. In short, it runs like this: as §1
Assay [4] has as its system Setaria faberi (SETFA). Described as above. As to conditions: 312 h, evaluated after 13 days, read-out: percentage phytotoxicity SETFA. In short, it runs like this:
as §1

Assay [5] relates to Glycine max (GLXMA, soybean). Nature of the assay: Test 1B glasshouse assay for herbicidal activity, pre-emergence. As to conditions: 480 h, 20 DAA, read-out: percentage phytotoxicity GLXMA. The method, then: (§2) Seeds of a variety of monocotyledonous and dicotyledonous test plants are sown in standard soil in pots. The plants are cultivated for one day (for pre-emergence) or for about 12 days (range=10-13 days) (for post-emergence) under controlled conditions in a glasshouse (warm climate species at 24/18° C., cool climate species at 20/16° C., both at day/night; 16 hours light; 65% humidity).
(§3) An “instant formulation”, known as the “IF50”, containing 50 g/liter (i.e. 5% w/v) of the “technical” (i.e. unformulated) active ingredient is prepared by dissolving the active ingredient in a mixture of organic solvents and emulsifier, details of which are provided in the Table below. This IF50 is then mixed with a small, variable amount of acetone to aid dissolution, before addition of a 0.2% v/v aqueous solution of the adjuvant X-77 (which is a mixture of alkyl aryl polyoxyethylene glycols and free fatty acids in isopropanol, CAS Registry number 11097-66-8), as the aqueous diluent, to form an aqueous spray solution which contains a predetermined concentration of the active ingredient (which varies depending on the application rate of the active ingredient to the plants) and 0.2% v/v of the adjuvant X-77. This aqueous spray solution is then sprayed onto the plants, after one day's cultivation (for pre-emergence) or after about 12 days' cultivation (for post-emergence).
(§4) The test plants are then grown on, in a glasshouse (greenhouse) under controlled conditions (at either 24/18° C. or 20/16° C. (day/night) as mentioned above; 16 hours light; 65% humidity) and are watered twice daily. Either 15 days after application of the herbicide (15 DAA) (for post-emergence), or 20 days after application of the herbicide (20 DAA) (for pre-emergence), the test plants are evaluated visually, and an assessed percentage phytotoxicity score is given for each herbicidal application on each plant species (where 100%=total damage to plant; 0%=no damage to plant).
(§5) Warm climate crop plants: Glycine max (GLXMA, soybean).

Assay [6] concerns Digitaria sanguinalis (DIGSA). The description is as above. As to conditions: 480 h, 20 DAA, read-out: percentage phytotoxicity DIGSA. In outline:
(§6)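 Percentage phytotoxicity (100% = total damage, 0% = none) was scored visually 15 days (post-emergence) or 20 days (pre-emergence) after spraying. Plants had been sprayed 1 day or about 12 days after sowing with compound formulated as IF50 and diluted in 0.2% v/v X-77, then grown at 24/18° C. day/night.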

Assay [7] concerns SORVU (Sorghum bicolor (L.) Moench ssp. Bicolor, or Sorghum vulgare Pers.). The assay is described as above. As to conditions: 480 h, 20 DAA, read-out: percentage phytotoxicity SORVU. In outline: as §6
In assay [8] the test system is Setaria faberi (SETFA). The description is as above. As to conditions: 480 h, 20 DAA, read-out: percentage phytotoxicity SETFA. In short, it runs like this:
as §6

Assay [9] deals with Beta vulgaris (BEAVA, sugar beet). Nature of the assay: Test 1B glasshouse assay for herbicidal activity, post-emergence. As to conditions: 360 h; for plant injury at 60 g/ha: 60 g/ha application rate; for plant injury at 125 g/ha: 125 g/ha application rate. As for the experimental part: as §2, §3, §4
(§7) Cool climate crop plants: Triticum aestivum (TRZAW, winter wheat), Brassica napus (BRSNN, rape, also called oilseed rape or rapeseed), Beta vulgaris (BEAVA, sugar beet).

The test system of assay [10] is Brassica napus (BRSNN, rape). The description is as above. As to conditions: 360 h; for plant injury at 60 g/ha: 60 g/ha application rate; for plant injury at 125 g/ha: 125 g/ha application rate. As for the experimental part:
as §2, §3, §4, §7

The subject of assay [11] is Triticum aestivum (TRZAW, winter wheat). Described as above. As to conditions: 360 h; for plant injury at 60 g/ha: 60 g/ha application rate; for plant injury at 125 g/ha: 125 g/ha application rate. As for the experimental part:
as §2, §3, §4, §7

Assay [12] concerns Glycine max (GLXMA, soybean). Described as above. As to conditions: 360 h; for plant injury at 60 g/ha: 60 g/ha application rate; for plant injury at 125 g/ha: 125 g/ha application rate. As for the experimental part:
as §2, §3, §4, §5

Assay [13] relates to Alopecurus myosuroides (ALOMY). Described as above. As to conditions: 360 h; for pest or weed control at 60 g/ha: 60 g/ha application rate; for pest or weed control at 125 g/ha: 125 g/ha application rate. The method, then: as §2, §3, §4
(§8) Cool climate (“cool season”) grassy monocotyledonous weeds: Alopecurus myosuroides (ALOMY), Avena fatua (AVEFA), Lolium perenne (LOLPE).

In the next assay the test system is Avena fatua (AVEFA). Described as above. As to conditions: 360 h; for pest or weed control at 60 g/ha: 60 g/ha application rate; for pest or weed control at 125 g/ha: 125 g/ha application rate. The method, then: as §2, §3, §4, §8
The next assay has as its system Lolium perenne (LOLPE). The assay is described as above. As to conditions: 360 h; for pest or weed control at 60 g/ha: 60 g/ha application rate; for pest or weed control at 125 g/ha: 125 g/ha application rate. The method, then: as §2, §3, §4, §8
The subject of assay [14] is Brachiaria plantaginea (BRAPL). Described as above. As to conditions: Urochloa plantaginea; for pest or weed control at 60 g/ha: 60 g/ha application rate; for pest or weed control at 125 g/ha: 125 g/ha application rate. In outline:
as §6

The test system of assay [15] is Abutilon theophasti Medik. (ABUTH). Nature of the assay: Test 1A glasshouse assay for herbicidal activity, post-emergence. As to conditions: 312 h, evaluated after 13 days, read-out: percentage phytotoxicity ABUTH. In short, it runs like this: as §1

With `CC#Cc1ccc(C2C(=O)C(C)(C)OC(C)(C)C2=O)c(C)c1` [Compound A-1], the pest or weed control at 250 g/ha is 90% in [1], 0% in assay [2], 80% in [3] and 90% in the assay with Setaria faberi (SETFA) [4]. The plant injury at 500 g/ha in [5] came out at 10%. Besides, the pest or weed control at 500 g/ha came to 60% in assay [6], 60% in assay [7] and 50% in the assay with Setaria faberi (SETFA) [8]. Moreover, the plant injury at 60 g/ha in [9] is 30%; in assay [10], 70%; in assay [11], 80%; in assay [12], 70%. Besides, the pest or weed control at 60 g/ha in assay [13] worked out at 80%; with Avena fatua (AVEFA) it was 60%; in the assay on Lolium perenne (LOLPE), 80%; in assay [14], 90%.
Regarding `CC#Cc1cc(Cl)c(C2C(=O)C3CCC(C3)C2=O)c(OC)c1` (stereo not drawn) [Compound A-12], the pest or weed control at 62.5 g/ha is 90% in assay [1] (62.5 g/ha); 0% in assay [2] (62.5 g/ha); 90% in [3] (62.5 g/ha); 100% with Setaria faberi (SETFA) [4] (62.5 g/ha); 0% in assay [15] (62.5 g/ha). In addition, the pest or weed control at 250 g/ha was 100% in assay [1]; 0% in assay [2]; 100% in assay [3]; 100% in the assay on Setaria faberi (SETFA) [4]; 50 to 60% in assay [15]; 100% in assay [6]. The pest or weed control at 250 g/ha in assay [7] was 90%; with Setaria faberi (SETFA) [8], 100%. In addition, the plant injury at 250 g/ha in assay [5] is 40%. Further, the plant injury at 30 g/ha in assay [9] (30 g/ha application rate) was 0%; in [10] (30 g/ha application rate), 60%; in assay [11] (30 g/ha application rate) it was 40%; in assay [12] (30 g/ha application rate), 0%. Also, the plant injury at 125 g/ha amounted to 20% in assay [9], 80% in assay [10], 60% in assay [11] and 10% in [12]. In addition, the pest or weed control at 30 g/ha in [13] (30 g/ha application rate) was determined as 10%; in the assay on Avena fatua (AVEFA) (30 g/ha application rate), 0%; in the assay with Lolium perenne (LOLPE) (30 g/ha application rate), 0%; in assay [14] (30 g/ha application rate), 70%. In addition, the pest or weed control at 125 g/ha turned out to be 70% in assay [13], 30% in the assay with Avena fatua (AVEFA), 70% with Lolium perenne (LOLPE) and 100% in assay [14].
Turning to `CC#Cc1cc(C)c(C2C(=O)CC(c3ccccn3)CC2=O)c(C)c1` (stereo not drawn) [Compound A-13], the pest or weed control at 30 g/ha came out at 70% in assay [1] (30 g/ha); 100% in assay [2] (30 g/ha); 100% in assay [3] (30 g/ha); 70% in the assay with Setaria faberi (SETFA) [4] (30 g/ha); 40% in assay [15] (30 g/ha). Also, the pest or weed control at 250 g/ha in [1] came out at 100%; in assay [2], 80%; in [3] it was 100%; with Setaria faberi (SETFA) [4], 100%; in assay [15], 80%; in [6], 100%. In addition, the pest or weed control at 250 g/ha (in [7]; in the assay with Setaria faberi (SETFA) [8]) was 80% in each case. Besides, the plant injury at 250 g/ha in assay [5] came to 20%. The plant injury at 125 g/ha in assay [9] was 20%; in assay [10] it was 70%; in [11] it was 30%; in assay [12], 60%. Besides, the pest or weed control at 125 g/ha amounted to 30% in assay [13], 20% in the assay with Avena fatua (AVEFA), 70% with Lolium perenne (LOLPE) and 100% in [14].
As for `CC#Cc1ccc(C2C(=O)C3CCC(C3)C2=O)c(C)c1` (single isomer, unassigned) [Compound A-2], the pest or weed control at 250 g/ha in assay [1] stood at 90%; in [2], 0%; in assay [3], 100%; in the assay with Setaria faberi (SETFA) [4], 70%. Besides, in [5], the plant injury at 500 g/ha stood at 0%. Also, the pest or weed control at 500 g/ha in assay [6] worked out at 100%; in assay [7], 80%; in the assay with Setaria faberi (SETFA) [8], 90%. Besides, the plant injury at 60 g/ha in assay [9] is 10%; in assay [10] it was 70%; in assay [11] it was 80%; in assay [12], 40%. Also, the pest or weed control at 60 g/ha stood at 90% in assay [13], 80% in the assay on Avena fatua (AVEFA), 80% in the assay on Lolium perenne (LOLPE) and 100% in assay [14].
